From patent US12201609B2, “Saroglitazar for the treatment of hepatocellular carcinoma” (CADILA HEALTHCARE LIMITED, priority 2018, dated 2025)

System: Hepatocellular Carcinoma Induced by Intraperitoneal Injection of Diethylnitrosamine in C57/BL6 Mice
Test: Saroglitazar efficacy in hepatocellular carcinoma induced by diethylnitrosamine (DEN) injection and CDAHFD feeding in mice
Assay type: in vivo, C57BL/6 male mice
Details: CDAHFD-DEN mice; for Serum ALT levels, % Change Vs Disease Control / Serum AST levels, % Change Vs Disease Control / Serum TG levels, % Change Vs Disease Control / % animals showing liver tumor / No. of animal with tumor / No. of liver tumors/animal / Serum ALT levels / Serum AST levels / Serum TG levels: p.o.; for % animals showing liver tumor / No. of animal with tumor / No. of liver tumors/animal: 27 weeks treatment; for Serum ALT levels / Serum AST levels / Serum TG levels: at termination
From the text: Evaluation of Saroglitazar's efficacy in Hepatocellular Carcinoma Induced by Intraperitoneal Injection of Diethylnitrosamine in C57/BL6 Mice.
In this study, hepatocellular carcinoma (HCC) was induced in C57BL/6 male mice first by injecting them with diethylnitrosamine (DEN) and by then feeding them a choline-deficient, L-amino acid-defined, high-fat diet (CDAHFD); Developed an experimental mouse model of hepatocellular carcinoma (Ohno T, Shimizu M, Shirakami Y, Baba A, Kochi T, Kubota M, et al. (2015) Metformin Suppresses Diethylnitrosamine-Induced Liver Tumorigenesis in Obese and Diabetic C57BL/KsJ−+Leprdb/+Leprdb Mice. PLoS ONE 10(4): e0124081; Journal of Cancer, 2018; 9(5): 914-922;)
The objective of this study was to evaluate the efficacy of Saroglitazar for prevention and or regression of hepatocellular carcinoma in mice after intraperitoneal injection of diethylnitrosamine and feeding of Choline deficient, L-amino acid-defined, High-fat Diet.
HCC was induced in C57BL/6 male mice by feeding them a choline-deficient, L-amino acid-defined, high-fat diet (CDAHFD) and administration of diethylnitrosamine (DEN). DEN was administered one-time by intraperitoneal route at the age of 3-weeks. Treatment with Saroglitazar (1 and 3 mg/kg) was initiated after 8 weeks of CDAHFD initiation and continued for 27 weeks.
After 8 weeks of CDAHFD diet (or DEN administration) blood collection was performed for serum ALT, AST and on the basis serum ALT level animals were divided in to following groups: • 1. Control for CDAHFD+Vehicle (n=10)—Normal Control • 2. CDAHFD—Saline+Vehicle (n=10)—CDAHFD Control • 3. CDAHFD—DEN+Vehicle (n=15)—Disease Control • 4. CDAHFD—DEN+Saroglitazar 1 mg/kg, p.o. (n=15)—D-Saro (1 mg/kg, p.o.) • 5. CDAHFD—DEN+Saroglitazar 3 mg/kg, p.o. (n=15)—D-Saro (3 mg/kg, p.o.)
Test compound formulation was prepared in Tween 80 and 0.5% sodium CMC in ratio of 0.5:99.5 in such that volume of administration will be 10 ml/kg.
Treatment along with diet was continued for 27 weeks.
In this study almost 50% animals from each group were terminated at 31 weeks after DEN injection and remaining 50% animals were sacrificed at 35 weeks after DEN administration (i.e. completion of 27 weeks of treatment). At termination, blood collection was performed for serum parameters like ALT, AST and TG. Animals were sacrificed; spleen and liver will be collected and weighed. Liver will be observed for presence of tumors, number of tumors and size of tumors. Liver was collected for liver biochemistry, histology

CCO[C@@H](Cc1ccc(OCCn2c(C)ccc2-c2ccc(SC)cc2)cc1)C(=O)O [Saroglitazar]
prevention of hepatic carcinogenesis (3 mg/kg dose): 100%
tumor in liver (in words) (3 mg/kg dose): did not show any tumor in liver
reduction in serum ALT (3 mg/kg, vs disease control): 40%
reduction in serum AST (3 mg/kg, vs disease control): 44%
effect on liver tumor incidence (in words) (1 and 3 mg/kg): dose dependent effect on liver tumor incidence
serum triglycerides levels (in words) (1 and 3 mg/kg): dose dependent reduction
Serum ALT levels, % Change Vs Disease Control (Saroglitazar 1 mg/kg): −33.6%
Serum AST levels, % Change Vs Disease Control (Saroglitazar 1 mg/kg): −36.2%
Serum TG levels, % Change Vs Disease Control (Saroglitazar 1 mg/kg): −38.4%
% animals showing liver tumor (Saroglitazar 1 mg/kg): 20.0%
No. of animal with tumor (Saroglitazar 1 mg/kg): 3 out of 15
No. of liver tumors/animal (Saroglitazar 1 mg/kg): 0.3
Serum ALT levels (Saroglitazar 1 mg/kg): 232.3 U/L
Serum AST levels (Saroglitazar 1 mg/kg): 231.1 U/L
Serum TG levels (Saroglitazar 1 mg/kg): 42.7 mg/dL
Serum ALT levels, % Change Vs Disease Control (Saroglitazar 3 mg/kg): −39.9%
Serum AST levels, % Change Vs Disease Control (Saroglitazar 3 mg/kg): −43.9%
Serum TG levels, % Change Vs Disease Control (Saroglitazar 3 mg/kg): −54.6%
% animals showing liver tumor (Saroglitazar 3 mg/kg): 0.0%
No. of animal with tumor (Saroglitazar 3 mg/kg): 0 out of 15
No. of liver tumors/animal (Saroglitazar 3 mg/kg): 0.0
Serum ALT levels (Saroglitazar 3 mg/kg): 210.5 U/L
Serum AST levels (Saroglitazar 3 mg/kg): 203.0 U/L
Serum TG levels (Saroglitazar 3 mg/kg): 31.5 mg/dL
liver injury markers, serum ALT and AST (in words) (Saroglitazar treatment): significant reduction
